# Reference: patent US20190077774A1, “PEROXISOME PROLIFERATOR-ACTIVATED RECEPTOR AGONISTS” (City of Hope, priority 2017, published 2019)
# Where “and” joins values, the source holds several entries; their conditions need not be identical. Equal values may be shown once. Entries after “also recorded” stand apart in the source; their conditions may differ.
# Key:
# C57Bl/6J female mice = experiment: Serum triglyceride and lipid effects in C57Bl/6J female mice; type: in vivo
# Method: FIG. 5. Ligand Screening Results: DY series compounds and controls administered once to C57Bl/6J female mice at 8 weeks of age. Mice were treated at 3 mg/kg for all compounds except WY14643 (100 mg/kg). Compounds gavaged at 0900; mice sacrificed 24 h later. Ordered by degree of effect on triglyceride lowering. According to our screening test, DY series compounds reduce triglycerides.
# Next, we would like to investigate the therapeutic potential of DY121 to see if it could be candidate for treating NAFLD/NASH. Note that the pathogenesis of NASH has not yet been fully elucidated so far; however, the ‘two-hit’ theory is widely accepted. The first hit is the accumulation of fatty acids in the liver to cause steatosis. […] The newly produced PPARα agonist DY121 and its analogs, as well as WY100=WY14643 and GW3 (GW7647), were evaluated in C57Bl/6J female mice for their ability to alter serum triglyceride, liver gene expression, and glucose. Fibric acid derivatives (100 mg/kg/day) was used as a control, WY100 (WY14, 643, 100 mg/kg/day), GW3 (GW7647-positive control, 3 mg/kg/day), DY121 (˜3 mg/kg/day), respectively. DY series compounds and controls administered once to C57Bl/6J female mice at 8 weeks of age. Mice were treated at 3 mg/kg for all compounds except WY14643 (100 mg/kg).
# human PPARα = molecular target: T1, human PPARα (Homo sapiens, UniProt Q07869); experiment: PPAR-GAL4 transactivation assay in transiently transfected CV-1 cells; type: cell-based
# T1 construct: expressed in transfected cells; host or cells: CV-1 (monkey kidney) cells, transient transfection
# T1 sequence (Q07869 159-468): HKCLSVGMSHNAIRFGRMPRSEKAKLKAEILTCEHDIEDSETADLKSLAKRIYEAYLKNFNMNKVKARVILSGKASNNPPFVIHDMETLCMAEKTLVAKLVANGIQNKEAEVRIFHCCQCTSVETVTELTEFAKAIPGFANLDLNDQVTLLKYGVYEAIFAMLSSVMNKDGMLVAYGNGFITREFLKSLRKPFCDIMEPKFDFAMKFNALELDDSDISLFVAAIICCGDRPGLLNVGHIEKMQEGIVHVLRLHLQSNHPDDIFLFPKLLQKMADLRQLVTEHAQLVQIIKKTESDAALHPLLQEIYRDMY
# Method: To assess the functional transcriptional activity of these compounds, cell-based assays using chimeric receptor Gal4 DNA-binding domain (DBD)-NR ligand binding domain cotransfection assay (LBDs of PPARα, PPARγ, and PPARδ) were performed. As an initial screen to determine the PPARα activity and selectivity, all compounds were evaluated for in vitro potency and selectivity by transfection testing, using CV-1 cells transfected with human and mouse PPARs. MH100×4 is a luciferase reporter with four copies of a GAL4 UASG response element, where GAL-I refers to the ligand-binding domain of the indicated receptor fused to the C-terminus of the GAL4 DNA-binding domain. Assays were performed using a Biomek automated workstation in which the genes for the nuclear receptor, as well as a plasmid containing a response element upstream of a luciferase cDNA, are transfected into CV-1 cells. Compounds were evaluated for their ability to activate human and mouse PPARs at […] test concentrations. […] The transactivation activity of the series of compounds (DY121-132, 10a-g) toward PPARα was expressed as EC50, which is the concentration of the test compound that affords half-maximum activity, as summarized in Table 1.
# Cell-based reporter gene assays Cell based transactivation assays were performed in CV 1 cells as described (Forman, et al.). PPARα activity was assayed with a GAL4 reporter construct and fusion proteins containing the ligand binding domains of human PPARα, human PPARγ and human PPARδ linked to the DNA binding domain of yeast GAL4. Reporter constructs (300 ng/10^5 cells) and cytomegalovirus-driven expression vectors (20-50 ng/10^5 cells) were added as indicated along with CMX-b-gal (500 ng/10^5 cells) as an internal control. Cells were transiently transfected by Lipofectamine as described. Cells were incubated with DNA complexed liposomes for 2 h and subsequently treated for approximately 45 h with phenol red free DMEM FBS containing the indicated compounds. After exposure to ligand, the cells were harvested and assayed for luciferase and β-galactosidase activity. All points were assayed in triplicate and varied by less than 15%. Each experiment was repeated three or more times with similar results. Fold activation is reported.
# In vitro binding and transfection studies. As an initial screen to determine the PPARα, PPARγ, and PPARδ activity, all compounds were evaluated for in vitro potency and selectivity by transfection testing, using CV-1 cells transfected with human and mouse PPARs. MH100×4 is a luciferase reporter with four copies of a GAL4 USAG response element, where GAL-I refers to the ligand-binding domain of the indicated receptor fused to the C-terminus of the GAL4 DNA-binding domain. Assays were performed using a Biomek automated workstation in which the gene for the nuclear receptor, as well as a plasmid containing a response element upstream of a luciferase cDNA, are transfected into CV-1 cells. Compounds were evaluated for their ability to activate human PPARs at 1, 2.5, 3, and 5 uM test concentrations.
# Compounds were screened for agonist activity towards PPAR-GAL4 chimeric receptors in transiently transfected CV-1 cells as described. EC50 is the concentration of test compound that gave 50% maximum efficacy.
smiles,measurement,setting,value
"COc1ccc(Cn2c(CCCc3ccc(OC(C)(C)C(=O)O)cc3)nn(Cc3ccc(C)cc3)c2=O)cc1 [10a, 2-(4-{3-[4-(4-Methoxy-benzyl)-1-(4-methyl-benzyl)-5-oxo-4,5-dihydro-1H[1,2,4]triazol-3-yl]-propyl}-phenoxy)-2-methyl-propionic acid]",hepatic TG accumulation,"C57Bl/6J female mice; 3 mg/kg DY121, WY14643 100 mg/kg",suppressed; also recorded: more apparent
same,serum triglyceride (TG) concentrations,C57Bl/6J female mice; DY121-treated mice vs control,significantly decreased
same,fold greater PPARα agonistic activity compared to LY518674,human PPARα,42 fold
same,EC50,"human PPARα; PPAR-GAL4 chimeric receptor, CV-1 cells, read-out: EC50(nM) hPPARα",0.85 nM and 1 nM
same,selectivity over PPARγ and PPARδ,human PPARα; PPAR-GAL4 transactivation assays,excellent selectivity
